Assay results taken from US20190031618A1, “BENZIMIDAZOLE DERIVATIVES USEFUL AS CB-1 INVERSE AGONISTS” (Janssen Pharmaceutica NV, priority 2015, published 2019).

Columns and labels:
[1] = molecular target: Human CB1R (Cannabinoid receptor 1) (Homo sapiens, UniProt P21554); experiment: CB-1 in vitro cAMP (HTRF) assay; type: cell-based; details: for EC50: HEK cells, cAMP HTRF, 250 nM forskolin, mean where tested more than once, read-out: CB1 HEK_cAMP EC50
Summary of the method: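 Intracellular cAMP from HTRF ratio (d2-cAMP vs Eu-cryptate anti-cAMP), converted to nM via per-plate standards, in stable human CB1R HEK-293 cells.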

[2] = molecular target: Human CB2R (Cannabinoid receptor 2) (Homo sapiens, UniProt P34972); experiment: CB-2 in vitro cAMP (HTRF) assay; type: cell-based; details: for EC50: HEK cells, cAMP HTRF, 250 nM forskolin, mean where tested more than once, read-out: CB2 HEK_cAMP EC50
Summary of the method: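 HEK-293 cells stably expressing receptor, plated overnight at 4E5 cells/mL, tested with 1/3 serial dilutions of compound in HBSS/HEPES/BSA buffer with 0.5 mM IBMX and forskolin (diluted to 1.5 μM in buffer). cAMP measured by competitive HTRF immunoassay (d2-cAMP, cryptate anti-cAMP), signal inversely proportional to cAMP.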

Sequence of Human CB1R (Cannabinoid receptor 1) (P21554 whole entry): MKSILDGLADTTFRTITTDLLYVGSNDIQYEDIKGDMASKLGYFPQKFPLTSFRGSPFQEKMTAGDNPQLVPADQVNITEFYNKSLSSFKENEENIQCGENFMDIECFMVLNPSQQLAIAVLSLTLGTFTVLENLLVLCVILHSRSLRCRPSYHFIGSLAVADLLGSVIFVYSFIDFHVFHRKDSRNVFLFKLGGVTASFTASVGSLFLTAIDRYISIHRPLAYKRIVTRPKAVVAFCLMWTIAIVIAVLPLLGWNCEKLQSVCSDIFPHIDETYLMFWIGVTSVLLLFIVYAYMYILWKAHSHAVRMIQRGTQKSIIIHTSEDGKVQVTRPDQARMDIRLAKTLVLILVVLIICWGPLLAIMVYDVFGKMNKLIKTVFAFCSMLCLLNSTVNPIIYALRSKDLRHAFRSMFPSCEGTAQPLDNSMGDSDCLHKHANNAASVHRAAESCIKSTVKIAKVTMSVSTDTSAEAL
Sequence of Human CB2R (Cannabinoid receptor 2) (P34972 whole entry): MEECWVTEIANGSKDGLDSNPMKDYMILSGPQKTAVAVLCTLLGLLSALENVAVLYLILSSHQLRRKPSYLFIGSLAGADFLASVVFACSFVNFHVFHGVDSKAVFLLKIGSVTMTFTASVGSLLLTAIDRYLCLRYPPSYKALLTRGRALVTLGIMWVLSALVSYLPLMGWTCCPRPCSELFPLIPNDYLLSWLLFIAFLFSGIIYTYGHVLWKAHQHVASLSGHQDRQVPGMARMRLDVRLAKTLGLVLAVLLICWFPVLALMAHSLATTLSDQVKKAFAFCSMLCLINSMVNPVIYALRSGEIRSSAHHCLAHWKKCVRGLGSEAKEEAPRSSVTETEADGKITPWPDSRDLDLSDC

SMILES | EC50 [1] [µM] | EC50 [2] [µM] | IC50 ([1]; first line of the list, HEK-293 cells, cAMP, 250 nM Forskolin) [µM] | IC50 ([2]; second line, the sentence announces activity against CB-1 and CB-2, read-out: CB-1 receptor: IC50 (second line of the list)) [µM]
CCOC(=O)N1CCC(n2cnc3ccc(C(c4ccc(Cl)cc4)c4nccs4)cc32)CC1 (stereo not drawn) [Example 448] | 0.1 | > 10 | – | –
Cc1nc2ccc(C(c3ccc(Cl)cc3)c3nc(C(F)(F)F)cs3)cc2n1Cc1ccc(Cl)cc1 (stereo not drawn) [Example 455] | 2.41 | > 7.4 | – | –
CCc1csc(C(c2ccc(Cl)cc2)c2ccc3nc(-c4ccc(Cl)cc4)n(Cc4ccc(Cl)cc4)c3c2)n1 (stereo not drawn) [Example 456] | > 10 | > 9.2 | – | –
CCc1csc(C(c2ccc(Cl)cc2)c2ccc3ncn(Cc4ccc(Cl)cc4)c3c2)n1 (stereo not drawn) [Example 460] | > 10 | > 10 | – | –
FC(F)(F)c1csc(C(c2ccc(Cl)cc2)c2ccc3ncn(Cc4ccc(Cl)cc4)c3c2)n1 (stereo not drawn) [Example 462] | > 10 | > 6.6 | – | –
Cc1nc2ccc(C(c3ccc(Cl)cc3)c3nccs3)cc2n1Cc1ccc(Cl)cc1 (stereo not drawn) [Example 463] | 0.164 | > 7.6 | – | –
Clc1ccc(Cn2cnc3ccc(C(c4ccc(Cl)cc4)c4nccs4)cc32)cc1 (stereo not drawn) [Example 466] | > 8.7 | 1.43 | – | –
O=S(=O)(c1cccc(NCCOCCOCc2ccccc2)c1)N1CCC(n2c(C3CC3)nc3ccc(C(c4ccc(Cl)cc4)c4ccc(Cl)cc4)cc32)CC1 [compound of formula (II), N-(2-(2-(benzyloxy)ethoxy)ethyl)-3-((4-(6-(bis(4-chlorophenyl)methyl)-2-cyclopropyl-1H-benzo[d]imidazol-1-yl)piperidin-1-yl)sulfonyl)aniline] | – | – | 0.0135 | > 10

More lines, now with the values ahead:

EC50 [1] [µM] | EC50 [2] [µM] | IC50 ([1]; first line of the list, HEK-293 cells, cAMP, 250 nM Forskolin) [µM] | IC50 ([2]; second line, the sentence announces activity against CB-1 and CB-2, read-out: CB-1 receptor: IC50 (second line of the list)) [µM] | SMILES
0.947 | > 10 | – | – | CCOC(=O)N1CCC(n2c(C)nc3ccc(C(c4ccc(Cl)cc4)c4nccs4)cc32)CC1 (stereo not drawn) [Example 445]
> 10 | > 10 | – | – | CC(C)(C)c1csc(C(c2ccc(Cl)cc2)c2ccc3ncn(Cc4ccc(Cl)cc4)c3c2)n1 (stereo not drawn) [Example 449]
0.813 | > 6.7 | – | – | CCc1csc(C(c2ccc(Cl)cc2)c2ccc3nc(C)n(Cc4ccc(Cl)cc4)c3c2)n1 (stereo not drawn) [Example 452]
0.212 | > 7.2 | – | – | Clc1ccc(Cn2c(-c3ccc(Cl)cc3)nc3ccc(C(c4ccc(Cl)cc4)c4nccs4)cc32)cc1 (stereo not drawn) [Example 464]
